From publication PMC5562305, “Impact of novel palmitoylated prolactin-releasing peptide analogs on metabolic changes in mice with diet-induced obesity” (PLoS ONE, 2017)
Starred links: 1 amine or outer side, 2 acyl side, 3 side chain; linkers in the order of their positions; H or OH if unused. Residues, ends and D or L forms follow the SMILES beside them. Groups on a side chain read outwards from the residue. *: point of attachment. TTDA(Palmitoyl) = CCCCCCCCCCCCCCCC(=O)NCCCOCCOCCOCCCN*; Suc = O=C(CCC(=O)[*:2])[*:1]

Tested on: urinary metabolites
Experiment: NMR-based metabolomics of urine of DIO mice
Assay type: in vivo, C57BL/6 mice
Design: key to DMA, Mean / DMG, Mean / MA, Mean / TMA, Mean / acetate, Mean / allantoin, Mean / carnitine, Mean / choline, Mean / cis-aconitate, Mean / creatine+creatinine, Mean / creatine, Mean / creatinine, Mean / ethanolamine, Mean / formate, Mean / galactose, Mean / glucose, Mean / glycine, Mean / lactate, Mean / succinate, Mean / vinylacetylglycine, Mean: TSA-normalized intensity of the metabolite's representative NMR signal
Conditions: for 2-OG (2.45 ppm), Mean / 2-OG (3.01 ppm), Mean / 2-PY (8.33 ppm), Mean / 3-indoxylsulfate (7.51 ppm), Mean / 3-indoxylsulfate (7.71 ppm), Mean / 4-PY (7.97 ppm), Mean / 4-PY (8.55 ppm), Mean / DMA, Mean / DMG, Mean / MA, Mean / MNA (8.90 ppm), Mean / MNA (8.97 ppm), Mean / MNA (9.265 ppm), Mean / MNA-Nox (7.75 ppm), Mean / MNA-Nox (8.13 ppm), Mean / MNA-Nox (8.49 ppm), Mean / MNA-Nox (8.75 ppm), Mean / N-carbamoylalanine (2.38 ppm), Mean / N-carbamoylalanine (3.31 ppm), Mean / N-isovalerylglycine + oxovalerate (0.92 ppm), Mean / TMA, Mean / acetate, Mean / allantoin, Mean / carnitine, Mean / choline, Mean / cis-aconitate, Mean / citrate (2.55 ppm), Mean / citrate (2.69 ppm), Mean / creatine+creatinine, Mean / creatine, Mean / creatinine, Mean / ethanolamine, Mean / formate, Mean / fumarate, Mean / galactose, Mean / glucose, Mean / glycine, Mean / hexanoylglycine + acids (0.88 ppm), Mean / hippurate (7.55 ppm), Mean / hippurate (7.64 ppm), Mean / hippurate (7.84 ppm), Mean / lactate, Mean / multiplet acids (1.6 ppm), Mean / putrescin, Mean / succinate, Mean / taurine (3.27 ppm), Mean / taurine (3.43 ppm), Mean / trigonelline (8.84 ppm), Mean / trigonelline (9.13 ppm), Mean / vinylacetylglycine, Mean: group mean
Procedure: Urine samples for NMR-based metabolomics were collected prior to the start of the interventions and at the end of the experiment. For overnight urine collection (from 5 pm to 8 am), the mice were housed in individual metabolic cages (Tecniplast, Buguggiate, Italy) without access to food. Samples were collected with the addition of NaN3 and stored at -80°C until NMR analysis.
The urine samples were thawed at room temperature and centrifuged at 13 684 x g for 5 min prior to the NMR experiments. A 200-μl aliquot of supernatant was diluted with 340 μl of H2O mixed with 60 μl of phosphate buffer (1.5 M KH2PO4 in D2O containing 2 mM NaN3 and 0.1% trimethylsilyl propionic acid (TSP), pH 7.4) and transferred to a 5-mm NMR tube. The NMR data were acquired with a 600 MHz Bruker Avance III spectrometer (Bruker BioSpin, Rheinstetten, Germany) equipped with a 5-mm TCI cryogenic probe head. All of the experiments were performed at 300 K. Automatic tuning, matching, shimming and adjusting of the 90° pulse length were performed for each sample.
As mouse urine naturally contains urinary proteins, the NMR spectra were acquired using a Carr-Purcell-Meiboom-Gill (CPMG) pulse sequence with water presaturation (Bruker pulse sequence cpmgpr1d) to eliminate the strong protein background. […] For better metabolite identification, a short J-resolved experiment with presaturation (NS = 2, SW = 16 ppm, TD = 8k, number of increments = 40, SW = 78.125 Hz in the indirect dimension, and relaxation delay = 2 s) was executed for all samples. Additional two-dimensional ^1H-^1H correlation spectroscopy (COSY) and ^1H-^13C heteronuclear multiple-quantum correlation (HMQC) experiments (Bruker pulse sequences cosygpprqf and hmqcphpr) were performed for selected samples.
The acquired data were processed using Topspin 3.2 software (Bruker BioSpin, Rheinstetten, Germany). Line broadening of 0.3 Hz was applied on free induction decays (FIDs) prior to Fourier transformation. The spectra were automatically phased, baseline corrected and referenced to the signal of TSP (0.00 ppm).
The assignment of individual metabolites was achieved by comparing the proton spectra with the spectra of pure metabolites using Chenomx NMR Suite 7.6 (Chenomx Inc., Edmonton, AB, Canada), the HMDB database and previously published metabolomic data. The identification of metabolites was supported through J-resolved and COSY experiments and, if possible, confirmed using carbon chemical shifts extracted from the HMQC spectra.
For quantitation of individual metabolites, the CPMG spectra were uniformly binned in the range of 0.10–10.00 ppm to 0.01-ppm intervals using AMIX software (Bruker BioSpin, Rheinstetten, Germany). This procedure reduced the dimensionality of the data, eliminated chemical shift variations and thus simplified the reproducible automatic quantification. Regions corresponding to water (4.60–4.90 ppm) and urea (5.60–6.00 ppm) were removed prior to analysis. As the dilutions of the original urine samples differed (due to the differences in water intake during urine collection), all of the spectra were normalized to the total spectral area (TSA). For each identified metabolite, one representative signal was chosen and then quantified as the sum of appropriate adjacent 0.01-ppm bins to cover the whole signal width. The metabolite concentration was expressed as the TSA-normalized intensity of the respective signal. For selection of an appropriate statistical method (parametric or non-parametric) the Lilliefors test of normality was performed. […] Metabolite alterations with a P < 0.05 were considered statistically significant. Statistical analysis was performed using Matlab software (“MATLAB version 8.6 (R2015b). Natick, Massachusetts: The MathWorks Inc., 2015.,” n.d.). […]

[1] = urine of DIO mice, NMR metabolomics, difference of analog mean vs saline mean
[2] = urine of DIO mice, NMR metabolomics

## CCCCCCCCCCCCCCCC(=O)NCCCOCCOCCOCCCNC(=O)CCC(=O)NCCCC[C@H](NC(=O)[C@@H](NC(=O)[C@H](CCC(=O)O)NC(=O)[C@H](CCSC)NC(=O)[C@H](CO)NC(=O)[C@H](Cc1c[nH]cn1)NC(=O)[C@H](CCCNC(=N)N)NC(=O)[C@H](Cc1c[nH]cn1)NC(=O)[C@@H](NC(=O)[C@H](CCCNC(=N)N)NC(=O)[C@H](CO)NC(=O)CCC(=O)NCCCOCCOCCOCCCNC(=O)CCCCCCCCCCCCCCC)[C@@H](C)O)[C@@H](C)CC)C(=O)N[C@H](C(=O)N1CCC[C@H]1C(=O)N[C@@H](CC(=O)O)C(=O)N[C@H](C(=O)N[C@@H](CC(N)=O)C(=O)N1CCC[C@H]1C(=O)N[C@@H](C)C(=O)N[C@@H](Cc1c[nH]c2ccccc12)C(=O)N[C@@H](Cc1ccc(O)cc1)C(=O)N[C@@H](C)C(=O)N[C@@H](CO)C(=O)N[C@@H](CCCNC(=N)N)C(=O)NCC(=O)N[C@H](C(=O)N[C@@H](CCCNC(=N)N)C(=O)N1CCC[C@H]1C(=O)N[C@H](C(=O)NCC(=O)N[C@@H](CCCNC(=N)N)C(=O)N[C@@H](Cc1ccccc1)C(N)=O)C(C)C)[C@@H](C)CC)[C@@H](C)CC)[C@@H](C)O [analog 3] ({TTDA(Palmitoyl)-Suc}-SRTHRHSMEIK([Suc-TTDA(Palmitoyl)])TPDINPAWYASRGIRPVGRF-NH2)
Urine NMR signal, DIO mice
  2-OG (2.45 ppm), Mean: 11.878
  2-OG (3.01 ppm), Mean: 10.469
  2-PY (8.33 ppm), Mean: 1.098
  3-indoxylsulfate (7.51 ppm), Mean: 1.344
  3-indoxylsulfate (7.71 ppm), Mean: 0.810
  4-PY (7.97 ppm), Mean: 2.017
  4-PY (8.55 ppm), Mean: 0.633
  DMA, Mean: 5.618
  DMG, Mean: 1.853
  MA, Mean: 3.016
  MNA (8.90 ppm), Mean: 0.487
  MNA (8.97 ppm), Mean: 0.470
  MNA (9.265 ppm), Mean: 0.490
  MNA-Nox (7.75 ppm), Mean: 0.972
  MNA-Nox (8.13 ppm), Mean: 0.792
  MNA-Nox (8.49 ppm), Mean: 0.511
  MNA-Nox (8.75 ppm), Mean: 0.485
  N-carbamoylalanine (2.38 ppm), Mean: 11.854
  N-carbamoylalanine (3.31 ppm), Mean: 9.499
  N-isovalerylglycine + oxovalerate (0.92 ppm), Mean: 16.056
  TMA, Mean: 11.780
  acetate, Mean: 3.429
  allantoin, Mean: 22.447
  carnitine, Mean: 6.067
  choline, Mean: 1.970
  cis-aconitate, Mean: 8.481
  citrate (2.55 ppm), Mean: 29.434
  citrate (2.69 ppm), Mean: 26.220
  creatine+creatinine, Mean: 24.904
  creatine, Mean: 7.343
  creatinine, Mean: 11.686
  ethanolamine, Mean: 8.370
  formate, Mean: 0.199
  fumarate, Mean: 0.151
  galactose, Mean: 0.578
  glucose, Mean: 3.207
  glycine, Mean: 5.874
  hexanoylglycine + acids (0.88 ppm), Mean: 15.361
  hippurate (7.55 ppm), Mean: 3.987
  hippurate (7.64 ppm), Mean: 2.057
  hippurate (7.84 ppm), Mean: 4.311
  lactate, Mean: 6.853
  multiplet acids (1.6 ppm), Mean: 12.521
  putrescin, Mean: 8.726
  succinate, Mean: 9.267
  taurine (3.27 ppm), Mean: 24.146
  taurine (3.43 ppm), Mean: 20.508
  trigonelline (8.84 ppm), Mean: 0.263
  trigonelline (9.13 ppm), Mean: 0.106
  vinylacetylglycine, Mean: 3.527
[1]
  2-OG (2.45 ppm), Saline/analog %: 0.010%
  2-OG (3.01 ppm), Saline/analog %: 0.022%
  2-PY (8.33 ppm), Saline/analog %: -0.056%
  3-indoxylsulfate (7.51 ppm), Saline/analog %: 0.032%
  3-indoxylsulfate (7.71 ppm), Saline/analog %: 0.052%
  4-PY (7.97 ppm), Saline/analog %: 0.115%
  4-PY (8.55 ppm), Saline/analog %: 0.091%
  DMA, Saline/analog %: 0.119%
  N-carbamoylalanine (2.38 ppm), Saline/analog %: 0.101%
  N-carbamoylalanine (3.31 ppm), Saline/analog %: 0.00116%
  N-isovalerylglycine + oxovalerate (0.92 ppm), Saline/analog %: 0.108%
  TMA, Saline/analog %: -0.031%
  acetate, Saline/analog %: -0.087%
  allantoin, Saline/analog %: 0.112%
  carnitine, Saline/analog %: 0.019%
  choline, Saline/analog %: -0.000203%
  cis-aconitate, Saline/analog %: -0.045%
  citrate (2.55 ppm), Saline/analog %: -0.096%
  citrate (2.69 ppm), Saline/analog %: -0.120%
  creatine+creatinine, Saline/analog %: 0.092%
  creatine, Saline/analog %: 0.053%
  creatinine, Saline/analog %: 0.053%
  ethanolamine, Saline/analog %: 0.053%
  formate, Saline/analog %: 0.00334%
  fumarate, Saline/analog %: -0.141%
  galactose, Saline/analog %: -0.254%
  glucose, Saline/analog %: -0.116%
  glycine, Saline/analog %: -0.035%
  hexanoylglycine + acids (0.88 ppm), Saline/analog %: 0.165%
  hippurate (7.55 ppm), Saline/analog %: -0.140%
  hippurate (7.64 ppm), Saline/analog %: -0.133%
  hippurate (7.84 ppm), Saline/analog %: -0.124%
  lactate, Saline/analog %: 0.112%
  multiplet acids (1.6 ppm), Saline/analog %: 0.172%
  putrescin, Saline/analog %: -0.021%
  succinate, Saline/analog %: -0.140%
  taurine (3.27 ppm), Saline/analog %: -0.063%
  taurine (3.43 ppm), Saline/analog %: -0.093%
  trigonelline (8.84 ppm), Saline/analog %: -0.159%
  trigonelline (9.13 ppm), Saline/analog %: -0.171%
  vinylacetylglycine, Saline/analog %: 0.175%
[2]
  2-OG (2.45 ppm), Mean: 11.878
  2-OG (3.01 ppm), Mean: 10.469
  2-PY (8.33 ppm), Mean: 1.098
  3-indoxylsulfate (7.51 ppm), Mean: 1.344
  3-indoxylsulfate (7.71 ppm), Mean: 0.810
  4-PY (7.97 ppm), Mean: 2.017
  4-PY (8.55 ppm), Mean: 0.633
  DMA, Mean: 5.618
  DMG, Mean: 1.853
  MA, Mean: 3.016
  MNA (8.90 ppm), Mean: 0.487
  MNA (8.97 ppm), Mean: 0.470
  MNA (9.265 ppm), Mean: 0.490
  MNA-Nox (7.75 ppm), Mean: 0.972
  MNA-Nox (8.13 ppm), Mean: 0.792
  MNA-Nox (8.49 ppm), Mean: 0.511
  MNA-Nox (8.75 ppm), Mean: 0.485
  N-carbamoylalanine (2.38 ppm), Mean: 11.854
  N-carbamoylalanine (3.31 ppm), Mean: 9.499
  N-isovalerylglycine + oxovalerate (0.92 ppm), Mean: 16.056
  TMA, Mean: 11.780
  acetate, Mean: 3.429
  allantoin, Mean: 22.447
  carnitine, Mean: 6.067
  choline, Mean: 1.970
  cis-aconitate, Mean: 8.481
  citrate (2.55 ppm), Mean: 29.434
  citrate (2.69 ppm), Mean: 26.220
  creatine+creatinine, Mean: 24.904
  creatine, Mean: 7.343
  creatinine, Mean: 11.686
  ethanolamine, Mean: 8.370
  formate, Mean: 0.199
  fumarate, Mean: 0.151
  galactose, Mean: 0.578
  glucose, Mean: 3.207
  glycine, Mean: 5.874
  hexanoylglycine + acids (0.88 ppm), Mean: 15.361
  hippurate (7.55 ppm), Mean: 3.987
  hippurate (7.64 ppm), Mean: 2.057
  hippurate (7.84 ppm), Mean: 4.311
  lactate, Mean: 6.853
  multiplet acids (1.6 ppm), Mean: 12.521
  putrescin, Mean: 8.726
  succinate, Mean: 9.267
  taurine (3.27 ppm), Mean: 24.146
  taurine (3.43 ppm), Mean: 20.508
  trigonelline (8.84 ppm), Mean: 0.263
  trigonelline (9.13 ppm), Mean: 0.106
  vinylacetylglycine, Mean: 3.527
